The subject of data set [1] is Brain. Briefly: AUC in rat brain at 5 mg/kg, sc. In kind it is ADME, organism-based. The arrangement: dose 5 mg/kg, route subcutaneous. The following applies: in vivo.
A short description of data set [2]: Cytotoxicity against human THLE cells assessed as cell health and cell depletion. In kind it is cell-based.
The subject of data set [3] is Plasma. Briefly: AUC in rat plasma at 5 mg/kg, sc. In kind it is ADME, organism-based. The arrangement: dose 5 mg/kg, route subcutaneous. The following applies: in vivo.

This is an account of results in ChEMBL document CHEMBL2150913, “Novel Benzoisoxazole as Partial Agonist of the 5-HT4 Receptor: Patent Highlight” (ACS Med Chem Lett, 2012).

As for `OC1(CN2CCC(COc3noc4cccc(O[C@@H]5CCOC5)c34)CC2)CCOCC1` [PF-04995274], the AUC in data set [1] is 1790 ng·h/g; in data set [3], 1760 ng·h/g. Further, the Activity in data set [2] came to 300 µM.
